The values that follow come from PubChem BioAssay (NCI).

What all share (experiment): NCI tumour cell line growth inhibition, 48 h
The subject of test [1] is DMS 114 small cell lung.
The test system of test [2] is DMS 273 small cell lung.
The test system of test [3] is HOP-18 NSCLC.
The subject of test [4] is KM20L2 colon.
Test [5] relates to M19-MEL melanoma.
Test [6] concerns RXF-631 renal.
Test [7] deals with SNB-78 CNS.
Test [8] concerns XF 498 CNS.
The subject of test [9] is MDA-N.

Each structure is given as a SMILES string. Several values for one entry are separate records, joined by “and”; a condition that tells them apart may be missing. Equal values may be shown once.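 These data come from cells grown in 96-well plates and exposed to compound for 48 hours at five concentrations. The concentration for 50% growth inhibition is given as GI50. TGI: concentration producing complete growth inhibition.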 Some results are limits rather than exact numbers.

As to `CC(O)C(NC(=O)c1ccccc1)C(=O)N(Cc1ccccc1)Cc1ccccc1` (stereo not given), the TGI in test [1], in test [2], in test [3], in test [4], in [5] and in [6] was above 100 µM throughout. The TGI in test [7] and in [8] was above 100 µM each time.

In test [9], `Cc1cn([C@H]2C[C@H](O)[C@@H](CO)O2)c(=O)nc1N` displayed a TGI above 100 µM.

As for `O=C1CCCC(O)=C1SC1=C(O)CCCC1=O`, the TGI in test [2], in test [3], in test [5], in [6] and in [7] was above 100 µM throughout.

Consider `COc1ccccc1NC(=O)C1=C(C)NC(C)=C(C(=O)Nc2ccccc2OC)C1c1cccc2ccccc12`, for which the TGI in test [1], in test [2], in test [3], in test [4], in test [5] and in [6] was above 100 µM in each case. For the same compound, the figures for the TGI in test [7] and in test [8] were 62.5 µM and above 100 µM, respectively.

Regarding `N#Cc1cc([N+](=O)[O-])ccc1NC(=O)C(=O)C(C(=O)c1ccc2ccccc2c1)C1OCc2ccccc21` (stereo not given), the TGI in test [1] came out at 29.7 µM; in [4] it was 42.6 µM; in test [5], 31.6 µM; in test [6], 37.5 µM; in test [7], 35.2 µM.

In turn, `Oc1ccc2ccccc2c1N=Nc1ccc(Cl)cc1` gave a TGI in test [9] above 100 µM.

As for `CC(C)C[CH2][Ge]([CH2]CC(C)C)([CH2]CC(C)C)[CH2]CC(C)C`, in test [9], the GI50 is above 100 µM and the TGI was above 100 µM.

As to `CCCC(=O)c1ccc(=O)n(C)c1`, the TGI in test [1], in [2], in [4], in test [5], in [6] and in test [8] was above 100 µM each time.

`O=C1/C(=C/c2ccc(Cl)c(Cl)c2)CNC/C1=C\c1ccc(Cl)c(Cl)c1`: the TGI in test [1] is above 32.7 µM; in test [2], 19.2 µM; in test [3] it was above 91.9 µM; in [4] it was 24.2 µM; in test [5], above 58.1 µM; in [9] it was 39.9 µM. Further, the figures for the TGI in test [6], in test [7] and in test [8] were above 100 µM, above 100 µM and 35.9 µM, respectively.

With `CC(=O)OCCOCNC(=S)N/N=C(\C)c1cccs1`, the TGI in [1], in test [2], in [3], in test [4], in [5] and in [7] was above 100 µM each time. Also, the TGI in test [8] is above 100 µM.

Turning to `CCC(C)c1cccc(C)c1NC(=O)C(=O)Cc1nc2ccccc2s1` (stereo not given), the TGI in [1], in test [2], in test [3], in [4], in [5] and in test [7] was above 100 µM each time. Further, the TGI in test [8] was above 100 µM.

For the compound `CN(C)c1ccc2cc3ccc(N(C)C)cc3nc2c1`, the TGI in [9] was found to be 3.03 µM.

For the compound `CCOc1ccc(NCC2CC/C(=C\c3ccc(Cl)cc3)C2=O)cc1` (stereo not given), the TGI in [1] is above 58.9 µM; in test [2] it was above 54.1 µM; in [3], 54.6 µM; in [4] it was above 55.8 µM; in test [5], above 58.6 µM; in test [7], above 100 µM. In [8], the TGI was 37.1 µM.

For the compound `ClC1c2ccccc2C2(c3ccccc3)OOC1(c1ccccc1)O2` (stereo not given), the TGI in test [1] turned out to be 0.725 µM; in [2], 3.17 µM; in test [4] it was 3.26 µM; in [7], 3.19 µM.

In the case of `CC#CC#C/C=C1\C=CC2(OC=CC2OC(C)=O)O1` (stereo not given), the TGI is 45.6 µM in test [1]; 49.1 µM in test [2]; 10.2 µM in [4]; 30.1 µM in [9]; 33.1 µM in test [6]; 18.7 µM in test [7]. The TGI in [8] stood at 37.7 µM.

In the case of `O=C1C(Br)=C(Br)C(=O)c2ccccc21`, the GI50 in [1] is 17.6 µM and 1.91 µM; in [2], 49.9 µM and 9.23 µM; in test [5], 16.1 µM and 6.98 µM; in [7], 26.5 µM and 7.52 µM; in test [8], 15.1 µM and 2.98 µM. The TGI in [1] is 34.9 µM and 6.91 µM; in test [2] it was > 100 µM and 23.5 µM; in [3], 35.5 µM; in test [4], > 100 µM and 32.1 µM; in test [5] it was 29.8 µM and 21.7 µM; in [9], 11.4 µM. For the same compound, the TGI in test [6] is 20.1 µM; in test [7], 48.9 µM and 18.4 µM; in test [8], 29.7 µM and 9.41 µM.

As for `COC1C(CO)OC(n2c3c(Cl)cccc3c3c4c(c5c6cccc(Cl)c6[nH]c5c32)C(=O)NC4=O)C(O)C1O` (stereo not given), the TGI was above 100 µM in test [1]; 1.3 µM in [2]; above 100 µM in test [4]; 0.898 µM in test [5]; 3.15 µM in test [9]; 84.3 µM in test [6]. In addition, the TGI in test [7] is above 100 µM; in [8], 0.931 µM.

For `O=C(Oc1ccc2c(-c3ccccc3)c(C(=O)Nc3ccc(Cl)cc3)c(=O)oc2c1)c1ccccc1`, the TGI in test [1], in test [2], in [3], in [4], in test [5] and in test [8] was above 100 µM throughout.

For the compound `NC(CCc1ncc(-c2ccccc2)s1)C(=O)O` (stereo not given), the TGI in test [1], in test [2], in [3], in [6] and in [7] was above 100 µM throughout.

On to `CC(C)CN1CC(C)C(=O)NC1=O` (stereo not given), for which the TGI in [1], in test [2], in [4], in test [5], in test [7] and in test [8] was above 100 µM in each case.

`OCC(O)COc1c(Cl)cc(Cl)cc1Cl` (stereo not given): the TGI in [1], in [2], in test [3], in test [4], in [5] and in test [6] was above 100 µM throughout. The TGI in test [7] and in test [8] was above 100 µM each time.

As to `CCOC(=O)C(=O)Nc1ccccc1OCC`, the TGI in [1], in [3], in test [5], in test [7] and in test [8] was above 100 µM throughout.

With `CN1C(=O)CCC1c1ccc2c(c1)oc(=O)n2C` (stereo not given), the TGI in test [1], in test [2], in test [3], in test [4], in test [5] and in test [7] was above 100 µM each time. The TGI in [8] was above 100 µM.

`O=C(/C=C/c1ccccc1O)c1cccc2ccccc12`: the TGI was above 92.2 µM in test [1]; above 100 µM in [2]; above 100 µM in [3]; above 100 µM in [4]; above 100 µM in [5]; above 100 µM in test [6]. Also, the TGI in test [7] and in [8] was above 100 µM each time.

For the compound `CN(C)C(=S)/N=c1\ss/c(=N\C(=S)N(C)C)n1Cc1ccco1`, the TGI in [1], in test [2], in [3], in [4], in test [5] and in test [7] was above 100 µM throughout.

With `Nc1c(C(=O)NC23CC4CC(CC(C4)C2)C3)[n+]([O-])c2ccccc2[n+]1[O-]`, the TGI in [2], in [3], in test [4], in test [5], in test [7] and in test [8] was above 100 µM throughout.

Turning to `O=C1CCNC(=O)NC1`, the TGI in test [1], in [2], in [3], in test [4], in test [5] and in test [6] was above 100 µM in each case. Moreover, the TGI in test [7] and in test [8] was above 100 µM each time.

For `Cn1nc2ccc3nccc(NCCNCCO)c3c2n1`, the TGI in test [4], in test [5], in test [7] and in [8] was above 100 µM each time.

As for `Cc1cccc(C(C)C)c1NC(=O)CCl`, the TGI is 50 µM in test [1]; above 100 µM in test [2]; above 100 µM in test [3]; above 100 µM in test [4]; above 100 µM in test [5]; above 100 µM in [7].

On to `CCOC(OCC)C(CC)[Se]c1ccccc1` (stereo not given), for which the TGI in test [1] was 8.89 µM; in [2] it was 28.4 µM; in test [3], above 100 µM; in test [4] it was 38.2 µM; in test [5] it was above 100 µM; in [6], above 100 µM. The TGI in test [7] and in [8] was above 100 µM each time.

Turning to `O=C1/C(=C/c2ccc(Cl)cc2)CCC1CN1CCOCC1` (stereo not given), the TGI in [1] was 70.2 µM; in test [2], 11.9 µM; in test [3], 29.7 µM; in test [4] it was 29.1 µM; in test [9], 18.4 µM; in test [6], above 62.5 µM. Further, the TGI worked out at 48.9 µM in test [7] and 4.97 µM in test [8].

As for `CCOc1cc2c(=O)oc3c(OC)ccc4ccc(c1OC)c2c43`, the TGI in [9] is above 100 µM.

Turning to `COc1cc(C(O)C(=O)c2cnc3cc([N+](=O)[O-])ccc3n2)ccc1O` (stereo not given), the TGI in test [1], in test [2], in [4], in test [5], in [6] and in test [8] was above 100 µM in each case.

Turning to `COc1ccc(N=Nc2c(-c3ccccc3)nn(C(=O)CC(=O)Nc3ccccc3Cl)c2-c2ccccc2)cc1`, the TGI in test [1], in test [2], in test [3], in test [4], in test [5] and in test [6] was above 100 µM each time. In addition, the TGI in [7] is above 100 µM.
